{
  "source": "patent US11845752B2",
  "about": "“Substituted imidazo[1,5-a]pyrazines for the treatment of hepatitis B” (ALIGOS THERAPEUTICS, INC., priority 2020, dated 2023)",
  "data": [
    {"system": "HBV", "experiment": "HBV-DNA antiviral assay using HepG2.117 cells (intracellular HBV DNA by qPCR)", "type": "cell-based, HBV genotype D", "settings": "HBV DNA inhibition, 3 days incubation, read-out: EC50", "method_in_brief": "(§1)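 Read-outs: cell-lysate HBV DNA copies by qPCR (interpolated from gBlock standard) and parallel cellular ATP luminescence for CC50, both normalised to 2% DMSO controls and fitted by non-linear regression. HepG2.117 Tet-off genotype D HBV cells, induced by doxycycline removal, exposed 3 days to 4-fold serial dilutions.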", "units": {"EC50": "nM"}, "values": [
      {"smiles": "CNc1cc(-c2ccccc2CNC(=O)c2c3n(c(=O)n2-c2ccc(OC4CC4)cc2)CC(C)N(C(=O)c2ccc(Br)c(C(F)(F)F)c2)C3)ncn1", "note": "(single isomer, unassigned) [Compound 40b]", "EC50": "< 50"},
      {"smiles": "CC1Cn2c(c(C(=O)NCc3ccccc3-c3cc(N)cnn3)n(-c3ccc(OC4CC4)cc3)c2=O)CN1C(=O)c1ccc(Br)c(Cl)c1", "note": "(single isomer, unassigned) [Compound 42a]", "EC50": "500 to 5000"},
      {"smiles": "CC1Cn2c(c(C(=O)NCc3ccccc3-c3cc(N)cnn3)n(-c3ccc(OC4CC4)cc3)c2=O)CN1C(=O)c1ccc(Br)c(Cl)c1", "note": "(single isomer, unassigned) [Compound 42b]", "EC50": "50 to 500"},
      {"smiles": "CC1Cn2c(c(C(=O)NCc3ccccc3-c3cc(N)cnn3)n(-c3ccc(OC4CC4)cc3)c2=O)CN1C(=O)c1ccc(Br)c(C(F)(F)F)c1", "note": "(single isomer, unassigned) [Compound 43a]", "EC50": "500 to 5000"},
      {"smiles": "CC1Cn2c(c(C(=O)NCc3ccccc3-c3cc(N)cnn3)n(-c3ccc(OC4CC4)cc3)c2=O)CN1C(=O)c1ccc(Br)c(C(F)(F)F)c1", "note": "(single isomer, unassigned) [Compound 43b]", "EC50": "50 to 500"},
      {"smiles": "CC1Cn2c(c(C(=O)NCc3ccccc3-c3c[nH]cn3)n(-c3ccc(OC4CC4)cc3)c2=O)CN1C(=O)c1ccc(Br)c(Cl)c1", "note": "(single isomer, unassigned) [Compound 44b]", "EC50": "< 50"},
      {"smiles": "Cc1nnc(-c2cccc(F)c2CNC(=O)c2c3n(c(=O)n2-c2ccc(OC4CC4)cc2)CC(C)N(C(=O)c2ccc(Br)c(Cl)c2)C3)o1", "note": "(single isomer, unassigned) [Compound 45b]", "EC50": "50 to 500"},
      {"smiles": "Cc1nc2cc(-n3c(C(=O)NCc4ccccc4-c4ccncn4)c4n(c3=O)CC(C)N(C(=O)c3ccc(Br)c(Cl)c3)C4)ccc2o1", "note": "(single isomer, unassigned) [Compound 46b]", "EC50": "< 50"},
      {"smiles": "Cc1nc2cc(-n3c(C(=O)NCc4ccccc4-c4ccncn4)c4n(c3=O)CC(C)N(C(=O)c3ccc(Br)c(C(F)(F)F)c3)C4)ccc2o1", "note": "(single isomer, unassigned) [Compound 48b]", "EC50": "< 50"},
      {"smiles": "CC1Cn2c(c(C(=O)NCc3c(F)cccc3-c3cccnn3)n(-c3ccc(OC4CC4)cc3)c2=O)CN1C(=O)c1ccc(Br)c(Cl)c1", "note": "(single isomer, unassigned) [Compound 49b]", "EC50": "50 to 500"},
      {"smiles": "CC1Cn2c(c(C(=O)NCc3c(F)cccc3-c3cccnn3)n(-c3ccc(OC4CC4)cc3)c2=O)CN1C(=O)c1ccc(Br)c(C(F)(F)F)c1", "note": "(single isomer, unassigned) [Compound 50b]", "EC50": "< 50"},
      {"smiles": "CC1Cn2c(c(C(=O)NCc3ccccc3-c3cc[nH]n3)n(-c3ccc(OC4CC4)cc3)c2=O)CN1C(=O)c1ccc(Br)c(Cl)c1", "note": "(single isomer, unassigned) [Compound 51b]", "EC50": "< 50"},
      {"smiles": "Cc1nnc(-c2ccccc2CNC(=O)c2c3n(c(=O)n2-c2ccc4oc(C)nc4c2)CC(C)N(C(=O)c2ccc(Br)c(Cl)c2)C3)o1", "note": "(single isomer, unassigned) [Compound 53b]", "EC50": "50 to 500"},
      {"smiles": "Cc1nnc(-c2ccccc2CNC(=O)c2c3n(c(=O)n2-c2ccc4oc(C)nc4c2)CC(C)N(C(=O)c2ccc(Br)c(C(F)(F)F)c2)C3)o1", "note": "(single isomer, unassigned) [Compound 54b]", "EC50": "50 to 500"},
      {"smiles": "CC1Cn2c(c(C(=O)NCc3ccccc3-c3cccnn3)n(-c3ccc(OC[C@@H](C)O)cc3)c2=O)CN1C(=O)c1ccc(Br)c(C(F)(F)F)c1", "note": "(single isomer, unassigned) [Compound 56a]", "EC50": "500 to 5000"},
      {"smiles": "CC1Cn2c(c(C(=O)NCc3ccccc3-c3cccnn3)n(-c3ccc(OC[C@@H](C)O)cc3)c2=O)CN1C(=O)c1ccc(Br)c(C(F)(F)F)c1", "note": "(single isomer, unassigned) [Compound 56b]", "EC50": "50 to 500"},
      {"smiles": "CC1Cn2c(c(C(=O)NCc3ccccc3-c3ncccn3)n(-c3ccc(OC4CC4)cc3)c2=O)CN1C(=O)c1ccc(Br)c(C(F)(F)F)c1", "note": "(single isomer, unassigned) [Compound 59b]", "EC50": "< 50"},
      {"smiles": "CCC(=O)COc1ccc(-n2c(C(=O)NCc3ccccc3-c3ncccn3)c3n(c2=O)CC(C)N(C(=O)c2ccc(Br)c(C(F)(F)F)c2)C3)cc1", "note": "(single isomer, unassigned) [Compound 70b]", "EC50": "< 50"},
      {"smiles": "CC1Cn2c(c(C(=O)NCc3ccccc3-c3ccncn3)n(-c3ccc(N4CC5(CN(C)C5)C4)cc3)c2=O)CN1C(=O)c1ccc(Br)c(C(F)(F)F)c1", "note": "(single isomer, unassigned) [Compound 73a, (6R*)-7-[4-bromo-3-(trifluoromethyl)benzoyl]-6-methyl-2-(4-{6-methyl-2,6-diazaspiro[3.3]heptan-2-yl}phenyl)-3-oxo-N-{[2-(pyrimidin-4-yl)phenyl]methyl}-5H,6H,8H-imidazo[1,5-a]pyrazine-1-carboxamide]", "EC50": "500 to 5000"},
      {"smiles": "CC1Cn2c(c(C(=O)NCc3ccccc3-c3ccncn3)n(-c3ccc(N4CC5(CN(C)C5)C4)cc3)c2=O)CN1C(=O)c1ccc(Br)c(C(F)(F)F)c1", "note": "(single isomer, unassigned) [Compound 73b, (6S*)-7-[4-bromo-3-(trifluoromethyl)benzoyl]-6-methyl-2-(4-{6-methyl-2,6-diazaspiro[3.3]heptan-2-yl}phenyl)-3-oxo-N-{[2-(pyrimidin-4-yl)phenyl]methyl}-5H,6H,8H-imidazo[1,5-a]pyrazine-1-carboxamide]", "EC50": "50 to 500"}
    ]},
    {"system": "HBV", "experiment": "HBV-DNA antiviral assay using HepG2.117 cells (intracellular HBV DNA by qPCR)", "type": "cell-based, HBV genotype D", "settings": "Hepatitis B virus, HepG2.117, 72 h, HBV DNA inhibition, 3 days incubation, read-out: EC50", "method_in_brief": "as §1", "units": {"EC50": "nM"}, "values": [
      {"smiles": "CC1Cn2c(c(C(=O)NCc3ccccc3-c3c[nH]cn3)n(-c3ccc(OC4CC4)cc3)c2=O)CN1C(=O)c1ccc(Br)c(Cl)c1", "note": "(single isomer, unassigned) [Compound 44a]", "EC50": "50 to 500"},
      {"smiles": "Cc1nnc(-c2cccc(F)c2CNC(=O)c2c3n(c(=O)n2-c2ccc(OC4CC4)cc2)CC(C)N(C(=O)c2ccc(Br)c(Cl)c2)C3)o1", "note": "(single isomer, unassigned) [Compound 45a]", "EC50": "50 to 500"},
      {"smiles": "Cc1nc2cc(-n3c(C(=O)NCc4ccccc4-c4ccncn4)c4n(c3=O)CC(C)N(C(=O)c3ccc(Br)c(Cl)c3)C4)ccc2o1", "note": "(single isomer, unassigned) [Compound 46a]", "EC50": "50 to 500"},
      {"smiles": "Cc1nnc(-c2ccccc2CNC(=O)c2c3n(c(=O)n2-c2ccc(OC4CC4)cc2)CC(C)N(C(=O)c2ccc(Br)c(C(F)(F)F)c2)C3)o1", "note": "(single isomer, unassigned) [Compound 47a]", "EC50": "< 50"},
      {"smiles": "Cc1nc2cc(-n3c(C(=O)NCc4ccccc4-c4ccncn4)c4n(c3=O)CC(C)N(C(=O)c3ccc(Br)c(C(F)(F)F)c3)C4)ccc2o1", "note": "(single isomer, unassigned) [Compound 48a]", "EC50": "50 to 500"},
      {"smiles": "CC1Cn2c(c(C(=O)NCc3c(F)cccc3-c3cccnn3)n(-c3ccc(OC4CC4)cc3)c2=O)CN1C(=O)c1ccc(Br)c(Cl)c1", "note": "(single isomer, unassigned) [Compound 49a]", "EC50": "50 to 500"},
      {"smiles": "CC1Cn2c(c(C(=O)NCc3c(F)cccc3-c3cccnn3)n(-c3ccc(OC4CC4)cc3)c2=O)CN1C(=O)c1ccc(Br)c(C(F)(F)F)c1", "note": "(single isomer, unassigned) [Compound 50a]", "EC50": "50 to 500"},
      {"smiles": "CC1Cn2c(c(C(=O)NCc3ccccc3-c3cc[nH]n3)n(-c3ccc(OC4CC4)cc3)c2=O)CN1C(=O)c1ccc(Br)c(Cl)c1", "note": "(single isomer, unassigned) [Compound 51a]", "EC50": "50 to 500"},
      {"smiles": "Cc1nnc(-c2ccccc2CNC(=O)c2c3n(c(=O)n2-c2ccc4oc(C)nc4c2)CC(C)N(C(=O)c2ccc(Br)c(Cl)c2)C3)o1", "note": "(single isomer, unassigned) [Compound 53a]", "EC50": "50 to 500"},
      {"smiles": "Cc1nnc(-c2ccccc2CNC(=O)c2c3n(c(=O)n2-c2ccc4oc(C)nc4c2)CC(C)N(C(=O)c2ccc(Br)c(C(F)(F)F)c2)C3)o1", "note": "(single isomer, unassigned) [Compound 54a]", "EC50": "< 50"},
      {"smiles": "CC1Cn2c(c(C(=O)NCc3ccccc3-c3cccnn3)n(-c3ccc(OC[C@H](C)O)cc3)c2=O)CN1C(=O)c1ccc(Br)c(C(F)(F)F)c1", "note": "(single isomer, unassigned) [Compound 57a]", "EC50": "50 to 500"},
      {"smiles": "CC1Cn2c(c(C(=O)NCc3ccccc3-c3ncccn3)n(-c3ccc(OC4CC4)cc3)c2=O)CN1C(=O)c1ccc(Br)c(C(F)(F)F)c1", "note": "(single isomer, unassigned) [Compound 59a]", "EC50": "< 50"},
      {"smiles": "CC1Cn2c(c(C(=O)NCc3ccccc3-c3ccccn3)n(-c3ccc(OC[C@@H](C)O)cc3)c2=O)CN1C(=O)c1ccc(Br)c(C(F)(F)F)c1", "note": "(single isomer, unassigned) [Compound 60a]", "EC50": "50 to 500"},
      {"smiles": "CC1Cn2c(c(C(=O)NCc3ccccc3-c3ccncn3)n(-c3ccc(OC[C@@H](O)C(F)(F)F)cc3)c2=O)CN1C(=O)c1ccc(Br)c(C(F)(F)F)c1", "note": "(single isomer, unassigned) [Compound 62a]", "EC50": "< 50"},
      {"smiles": "CC1Cn2c(c(C(=O)NCc3ccccc3-c3ncccn3)n(-c3ccc(OC[C@@H](C)O)cc3)c2=O)CN1C(=O)c1ccc(Br)c(C(F)(F)F)c1", "note": "(single isomer, unassigned) [Compound 64a]", "EC50": "< 50"},
      {"smiles": "CC1Cn2c(c(C(=O)NCc3ccccc3-c3ncccn3)n(-c3ccc(OC[C@H](C)O)cc3)c2=O)CN1C(=O)c1ccc(Br)c(C(F)(F)F)c1", "note": "(single isomer, unassigned) [Compound 65a]", "EC50": "< 50"},
      {"smiles": "CC1Cn2c(c(C(=O)NCc3ccccc3-c3ccccn3)n(-c3ccc(OC[C@@H](O)C(F)(F)F)cc3)c2=O)CN1C(=O)c1ccc(Br)c(C(F)(F)F)c1", "note": "(single isomer, unassigned) [Compound 68a]", "EC50": "< 50"},
      {"smiles": "CC1Cn2c(c(C(=O)NCc3ccccc3-c3ccccn3)n(-c3ccc(OC[C@H](O)C(F)(F)F)cc3)c2=O)CN1C(=O)c1ccc(Br)c(C(F)(F)F)c1", "note": "(single isomer, unassigned) [Compound 69a]", "EC50": "< 50"},
      {"smiles": "CCC(=O)COc1ccc(-n2c(C(=O)NCc3ccccc3-c3ncccn3)c3n(c2=O)CC(C)N(C(=O)c2ccc(Br)c(C(F)(F)F)c2)C3)cc1", "note": "(single isomer, unassigned) [Compound 70a]", "EC50": "50 to 500"},
      {"smiles": "CC1Cn2c(c(C(=O)NCc3ccccc3-c3ccncn3)n(-c3ccc(OCC4(O)CC4)cc3)c2=O)CN1C(=O)c1ccc(Br)c(C(F)(F)F)c1", "note": "(single isomer, unassigned) [Compound 74b]", "EC50": "< 50"}
    ]}
  ]
}
